Results published in patent publication US9463188B2, “Osteopontin production inhibitor containing dictyopyrone derivative or dihydrodictyopyrone derivative as active ingredient” (TOHOKU UNIVERSITY, priority 2013, dated 2016).

Test system: OPN promoter in A549/OPNluc cells
Test: Influence of mevalonic acid on suppression of luciferase activity under control of OPN promoter
Assay type: cell-based, human
Procedure: In order to determine whether the OPN production inhibitory effect of a dictyopyrone derivative or a dihydrodictyopyrone derivative contained as an active ingredient in the OPN production inhibitor according to the present invention is based on the same mechanism of action as a well-known statin-based drug for treatment of hypercholesteremia, simvastatin or the compound 3 was added to a culture liquid containing A549/OPNluc cells to determine its effect on gene expression under control of OPN promoter and to observe whether or not the effect was maintained even in the presence of mevalonic acid. […]
The solution in each well was mixed with a vortex mixer, and then the 96-well plate was incubated in a CO2 incubator (at 37° C. and 5% CO2) for 48±4 hours. […] After 30 min, 90 min, and 120 min, absorbance values (450 nm) were measured using a microplate reader (Bio-Rad; Benchmark or Thermo Scientific; Varioskan Flash).
The absorbance values were input into an Excel file, and the absorbance values of all the samples of each test group were divided by the average absorbance value of Control to determine the ratio of the absorbance value of each sample to the absorbance value of Control (Ratio to Control). Absorbance value of each sample÷absorbance value of Control=Ratio to Control […]

CCCCCCCCCCCC(=O)[C@H]1C(=O)O[C@@H](C)C[C@@H]1C [Chemical formula 3]
luciferase activity under control of OPN promoter after addition of MVA (compound 3 25 μM + MVA (100 μM or 1 mM)): not recovered | luciferase activity under control of OPN promoter (compound 3 25 μM, no MVA, corrected by WST Ratio to Control): suppression of luciferase activity
